Assay results: patent US10028970B2, “Composition comprising cashew apple extract” (NATUREX, priority 2011, dated 2018)

Assay: Thermal degradation kinetics of CAE in water at 100° C. (HPLC)
Format: physicochemical
Conditions: CAE 50 g/L in deionised water
Description: The thermal degradation kinetics of CAE in water was investigated at 100° C. CAE was dissolved in deionised water at the concentration of 50 g/L and the solution was well homogenized. Volumes of 4 ml of this solution were placed in glass tubes, sealed, and placed in a mineral oil bath at 100° C. At predetermined intervals: 0, 10, 20, 30, 45, 60, 90, and 120 min, sample tubes were removed from the mineral oil bath and rapidly cooled in ice. For the analysis, 1 ml of each sample was mixed with 4 ml of HPLC grade methanol, homogenized, and filtrated on 0.45 μm HPLC filter. Then, 20 μL of the solution was analyzed in HPLC. The phytochemical composition of the samples was measured by reversed phase liquid chromatography using a C-18 column (ACE, 250×4.6 mm, 5 μm) at 280 nm. The areas under peak of the major components of CAE were measured in the different samples representing different time points of at 100° C.

incubation time after which the amount in the extract was divided by 2: 30 min
SMILES: O=C(/C=C/c1ccccc1)O[C@@H]1O[C@H](CO)[C@@H](O)[C@H](O)[C@H]1O (relative stereo) [1-O-trans-cinnamoyl-beta-D-glucoside, 1-O-trans-cinnamoyl-beta-D-glucopyranose]
amount remaining in the extract after 120 min of incubation (120 min): almost completely disappeared from the extract
